The source of these data is patent US20230110824A1, “FLUORESCENT PROBES FOR DETECTION OF CALCIFICATIONS” (TECHNISCHE UNIVERSITÄT BERLIN, priority 2020, published 2023).

Entries after “also recorded” stand apart in the source; their conditions may differ.

Data set [1] can be described thus: Staining of mouse rib sections with the dyes, epifluorescence microscopy. The settings on record: for dependence of fluorescence intensity of rib staining on incubation time: 10 to 120 mins; for dependence of fluorescence intensity of rib staining on dye concentration: 1, 0.1 and 0.01 mg/mL in HEPES; for HAP-associated staining / binding to HAP in rib sections: 1 mg/mL. The data set is classed as binding, mouse (C57BL/6). On the procedure: Mouse ribs (C57BL/6) were fixed in 4% paraformaldehyde (PFA). Ribs were processed for wax embedding through sequential immersion in increasing concentrations of ethanol followed by immersion in xylene/clearene and paraffin wax embedding. Rib sections (6 μm thickness) were dewaxed with xylene and rehydrated with decreasing concentrations of ethanol and distilled water (dH2O). Rib sections were incubated with a variety of either namely((4-(5,5-difluoro-1,3,7,9-tetramethyl-5H-414,514-dipyrrolo[1,2-c:2′,1′-f][1,3,2]diazaborinin-10-yl)phenyl)phosphonic acid) (BODIPY-PPA), 5,10,15,20-tetrakis[p-phenylphosphonicacid] porphyrin (p-H8TPPA) and 5,10,15,20-tetrakis[m-phenylphosphonic acid] porphyrin (m-H8TPPA) dyes. […] Meso-tetra(4-phosphorylphenyl)porphine, porph-tetra-meta-phenyl phosphonate, BODIPY-PPA; and BODIPY-PPA-2Et2 were all incubated for 120 mins when diluted to 1, 0.1 and 0.01 mg/mL in HEPES, and incubated at 1 mg/mL for 120, 60, 30, 20 and 10 mins. Images were obtained for up to two weeks after staining. p-H8TPPA-iPr8 and p-TBr3PPA-iPr2 were only incubated for 120 mins at 1 mg/mL, including an incubation with dimethyl sulfoxide (DMSO). Negative controls were included by incubating ribs with the buffers alone. Following incubation with the respective dyes, slides were washed with their respective buffers (3×5 mins) and counter stained with DAPI, diluted in PBS, for 20 mins. After washing with PBS (3×5 mins), slides were mounted with 70% glycerol, diluted in PBS. Images were acquired on a Leica DM5500 epifluorescent microscope, using a 20× objective. The exposure times used to capture these images were kept the same throughout imaging. Images were processed using the FIJI software.
To further probe their HAP binding properties, we have used laterally sectioned mouse ribs as an example of HAP, which were incubated with p-H8TPPA at concentrations ranging from 0.01 to 1.0 mg/mL in HEPES buffer for varying times at room temperature and imaged by fluorescence microscopy (for details see description of the figures), to assess HAP binding capability.

A short description of data set [2]: Absorbance and fluorescence spectra in presence and absence of HAP (Flexstation 3 microplate reader). In kind it is binding. How it is done: The absorbance (A) and fluorescence (B) spectra of 0.01 mg mL^−1p-H8TPPA in the presence (dashed lines) and absence (solid lines) of HAP. The dye was diluted to 0.01 mg mL^−1 in PBS (pH 7.4, green), TBS (pH 7.4, orange), HEPES (pH 7.4, purple) and d H2O with absorbance and fluorescence spectra obtained using the Flexstation 3 microplate reader.
Characterization of Probes: The structure and purity of the probes were characterized by liquid chromatography, infrared, NMR, and/or mass spectrometry. Their optical properties were characterized by absorption and fluorescence spectrophotometry in the presence and absence of authentic hydroxyapatite, whitlockite, and other doped apatites. The dyes were also tested on mouse ribs as an example of hydroxyapatite in tissue.
This is also reflected in the maximal peak of the fluorescence intensity (FIG. 14 B), with a shift from λem 646-648 nm for PBS, TBS and HEPES to λem 675 nm when diluted in dH2O. […] Previously reported bisphosphonate fluorophores had […] aliphatic carbons between the fluorescent core and HAP binding, therefore, such systems merely functioned as fluorescent labels with no change in emission due to HAP binding since they lacked synergistic interaction between the HAP and the fluorescent core. Phosphonic acids that have direct sp^2 bonds to the fluorescent core could extend the conjugation of the fluorescent core to the HAP and thereby could initiate changes in the ground and excited states resulting in quenching or enhancing the fluorescence emission.

The test system of data set [3] is THP-1 monocytes. Kind of data set: Cellular uptake / cell labeling of proliferating THP-1 monocytes, fluorescence emission scan. In kind it is cell-based, human. To be noted: loading buffer, 60 min, 420 nm excitation. How it is done: In addition to the application on bone sections, the phenylphosphonic acid/esterified porphyrins' propensity for cellular uptake was tested on proliferating human cells (FIG. 15). Aiming to use phenylphosphonic acid functionalized porphyrins in in vivo applications, the negative charge on the deprotonated phosphonate might be a handicap by limiting cell permeability. Optional demasking of phosphonate esters in metabolic surroundings might occur, recreating the metal binding PhPO3^2-. This possibility led us to examine p-H8TPPA and p-H8TPPA-iPr8 suitability for in vivo cellular experiments by testing their permeability on proliferating human THP-1 monocytes.
We have treated THP-1 monocytes with the Phosphorylphenyl-modified porphyrins in loading buffer (10 mM HEPES, pH 7.35, 120 mM NaCl, 5.4 mM KCl, 5 mM glucose, 1.3 mM CaCl2, 1 mM MgCl2, 1 mM NaH2PO4, 0.3% bovine serum albumin) for 60 min. Excess fluorescence dye was removed by multiple washing steps before fluorescence emission scanning using 420 nm excitation (Tecan Infinite M200 reader; Tecan, Germany). […] We hypothesize that the phosphonates, being somewhat amphipathic, were able to penetrate the cell membrane, whereas the more nonpolar esters were not as efficient.

For data set [4], the system named is intestinal Caco-2 cell line. The settings on record: at high concentrations; cited from earlier work.
The nature of data set [5]: Precipitation / solubility of the dye in incubation buffers. How it is done: Mouse ribs were incubated for 120 mins with p-TBr3PPA-iPr2 (5,10,15-tris[p-bromophenyl]-20-[p-phenyl-, bis(1-methylethyl) ester phosphonic acid] porphyrin) diluted to 1 mg/mL in different buffers.
Mouse ribs were incubated for 120 mins with p-H8TPPA-iPr8 phosphonate diester diluted to 1 mg/mL in different buffers.

The mark [6] stands for this setting: 1 mg/mL in HEPES, 120 mins, imaged up to 14 days / two weeks after staining.

As to `O=P(O)(O)c1cccc(-c2c3nc(c(-c4cccc(P(=O)(O)O)c4)c4ccc([nH]4)c(-c4cccc(P(=O)(O)O)c4)c4nc(c(-c5cccc(P(=O)(O)O)c5)c5ccc2[nH]5)C=C4)C=C3)c1` [m-H8TPPA, 5,10,15,20-tetrakis[m-phenylphosphonic acid] porphyrin], the “dependence of fluorescence intensity of rib staining on incubation time” value (from here on “dependence … on incubation time”) in data set [1] (1 mg/mL in HEPES) is “no clear difference in fluorescence intensity”. Also, the “change of fluorescence intensity after staining” value (“change of fluorescence intensity” below) in data set [1] (setting [6]) is given as “no noticeable decrease in fluorescence intensity”. The “dependence of fluorescence intensity of rib staining on dye concentration” value (from here on “dependence … on dye concentration”) in data set [1] (120 mins) is listed as “little to no difference in the fluorescent intensity”. In addition, the “duration of fluorescence of stained ribs” value in data set [1] (compared to p-H8TPPA) was “longer fluorescence period”.

Take `O=P(O)(O)c1ccc(-c2c3nc(c(-c4ccc(P(=O)(O)O)cc4)c4ccc([nH]4)c(-c4ccc(P(=O)(O)O)cc4)c4nc(c(-c5ccc(P(=O)(O)O)cc5)c5ccc2[nH]5)C=C4)C=C3)cc1` [p-H8TPPA, 5,10,15,20-tetrakis[p-phenylphosphonic acid] porphyrin]: the “fluorescent signal of stained ribs” value in data set [1] (0.1 mg/mL in HEPES) is listed as “clear fluorescent signal”; in data set [1] (1 mg/mL diluted in dH2O) it was “no fluorescent signal”. Besides, the “dependence … on incubation time” value in data set [1] (1 mg/mL in HEPES) was “clear increase in fluorescence intensity with an increasing incubation time”. For the same compound, the “difference of fluorescence intensity between buffers” value in data set [1] (1 mg/mL in HEPES, PBS, TBS) is on record as “no clear difference”. Moreover, in data set [1] (1 mg/mL in HEPES, day of staining vs 7 days later), the “change of fluorescence intensity” value is on record as “noticeable decrease in fluorescence intensity”. For the same compound, the “fluorescent signal of stained ribs compared to HEPES only negative control” value in data set [1] (1 mg/mL in HEPES, incubated for 10 mins) is on record as “clear fluorescent signal”. In addition, the “HAP-associated staining / binding to HAP in rib sections” value (from here on “HAP-associated staining / binding”) in data set [1] (120 mins) is recorded as “specific for hydroxyapatite”. Also, the “dependence … on dye concentration” value in data set [1] (120 mins) is recorded as “binds to HAP with a concentration dependence”. The “fluorescent signal after staining” value is listed as “weak fluorescent signal” in data set [1] (diluted in PBS, after two weeks); “fluorescent signal above background signal” in data set [1] (diluted in PBS, one week after staining); “fluorescent signal above background signal” in data set [1] (diluted in TBS, one week after staining). Moreover, the “fluorescence intensity upon HAP binding” value in data set [2] is recorded as “increased”. The “increase of fluorescence intensity upon HAP binding” value in data set [2] (0.01 mg mL^-1 in HEPES pH 7.4) came out at 2.0 fold; in data set [2] (0.01 mg mL^-1 in PBS pH 7.4), 1.8 fold; in data set [2] (0.01 mg mL^-1 in TBS pH 7.4), 2.0 fold; in data set [2] (0.01 mg mL^-1 in d H2O) it was 1.6 fold. Further, the “maximal peak of the fluorescence intensity (λem)” value in data set [2] (PBS, TBS and HEPES) is 646-648 nm; in data set [2] (diluted in dH2O) it was 675 nm. Further, the absorbance peak maximum in data set [2] (PBS, TBS and HEPES (before shift)) worked out at 415 nm; in data set [2] (diluted in dH2O) it was 435 nm. In addition, the “cell labeling / passage through the cellular membrane” value in data set [3] was “much more efficient in cell labeling; also recorded: can travel through the cellular membrane”. Besides, the “toxicity for an intestinal cell line” value in data set [4] is “no toxicity”.

As for `CC(C)OP(=O)(OC(C)C)c1ccc(-c2c3nc(c(-c4ccc(P(=O)(OC(C)C)OC(C)C)cc4)c4ccc([nH]4)c(-c4ccc(P(=O)(OC(C)C)OC(C)C)cc4)c4nc(c(-c5ccc(P(=O)(OC(C)C)OC(C)C)cc5)c5ccc2[nH]5)C=C4)C=C3)cc1` [p-H8TPPA-iPr8], the “HAP-associated staining / binding” value in data set [1] (120 mins) is reported as “no binding to HAP occurring; also recorded: complete lack of HAP-associated staining”. Moreover, the “cell labeling / passage through the cellular membrane” value in data set [3] is on record as “hindered their passage through the cellular membrane”. For the same compound, the “solubility in the aqueous” value in data set [5] was “dramatically reduced their solubilities”.

Take `CC(C)OP(=O)(OC(C)C)c1ccc(-c2c3nc(c(-c4ccc(Br)cc4)c4ccc([nH]4)c(-c4ccc(Br)cc4)c4nc(c(-c5ccc(Br)cc5)c5ccc2[nH]5)C=C4)C=C3)cc1` [p-TBr3PPA-iPr2, 5,10,15-tris[p-bromophenyl]-20-[p-phenyl-, bis(1-methylethyl) esterphosphonic acid] porphyrin]: the “HAP-associated staining / binding” value in data set [1] (120 mins) is “lack of HAP-associated staining; also recorded: no binding to HAP occurring”. Further, the “behaviour of the dye during incubation” value in data set [5] (1 mg/mL in DMSO) is reported as “precipitation of the dye”. Besides, the “behaviour of the dye during the incubation period” value in data set [5] (1 mg/mL in HEPES, PBS, TBS and dH2O, 120 mins) was “precipitated”.

Consider “((4-(5,5-difluoro-1,3,7,9-tetramethyl-5H-414,514-dipyrrolo[1,2-c:2′,1′-f][1,3,2]diazaborinin-10-yl)phenyl)phosphonic acid) [BODIPY-PPA]”, for which the “dependence … on incubation time” value in data set [1] (1 mg/mL in HEPES) is “decrease in fluorescence intensity is observed for decreasing incubation times”. Also, the “change of fluorescence intensity” value in data set [1] (setting [6]) was “only a very slight decrease in fluorescence intensity”. Further, the “dependence … on dye concentration” value in data set [1] (120 mins) is given as “strong concentration dependency of staining”.
